Blank lines part the entries; values can stand above or below the substance they belong to. Square brackets hold non-standard residues; d marks the D form. * marks the point of attachment. Palmitoyl = CCCCCCCCCCCCCCCC(=O)*; Dab = NCC[C@H](N)C(=O)O
Test: Storage stability: normalized peptide content by analytical HPLC of glycerin/water solutions in glass vials, with or without salt
Type: physicochemical
Settings: 40° C., glass vial
Description: (§1) Solutions of 127 mmol/kg H29C14—NH—CO-Dab-Val-Dab-OH in a Glycerin water mixture (˜2.3:1) containing salt concentrations of 382 mmol/kg have been prepared, distributed to 3 g per 10 ml glass vial and stored at 40° C. and 25° C. After various times, samples have been analyzed for their peptide content with analytical HPLC. The results have been normalized to the content at the preparation time to 100%.
as §1, with “119” for “127”, “Palm-Lys-Val-Lys-OH (SEQ ID NO:2)” for “H29C14—NH—CO-Dab-Val-Dab-OH”, “in” for “in a”, “one or three equivalents as indicated below” for “382 mmol/kg”, “40°” for “40° C. and 25°”
as §1, with “246” for “127”, “Palm-Lys-Val-Dab-OH (SEQ ID NO:5)” for “H29C14—NH—CO-Dab-Val-Dab-OH”, “in” for “in a”, “one or three equivalents as indicated below” for “382 mmol/kg”, “40°” for “40° C. and 25°”

normalized peptide content (3 eq. CaCl2 (382 mmol/kg), t0, 127 mmol/kg peptide in Glycerin water): 100.0% | normalized peptide content (3 eq. CaCl2, 1 Month, 127 mmol/kg peptide in Glycerin water): 92.2% | normalized peptide content (3 eq. CaCl2, 2 Month, 127 mmol/kg peptide in Glycerin water): 96.9% | normalized peptide content (3 eq. CaCl2, 3 Month, 127 mmol/kg peptide in Glycerin water): 101.1% | normalized peptide content (3 eq. CaCl2, 4 Month, 127 mmol/kg peptide in Glycerin water): 95.4% | normalized peptide content (3 eq. CaCl2, 5 Month, 127 mmol/kg peptide in Glycerin water): 89.0% | normalized peptide content (3 eq. CaCl2, 6 Month, 127 mmol/kg peptide in Glycerin water): 88.9% | normalized peptide content (3 eq. LiCl (382 mmol/kg), t0, 127 mmol/kg peptide in Glycerin water): 100.0% | normalized peptide content (3 eq. LiCl, 1 Month, 127 mmol/kg peptide in Glycerin water): 93.1% | normalized peptide content (3 eq. LiCl, 2 Month, 127 mmol/kg peptide in Glycerin water): 95.3% | normalized peptide content (3 eq. LiCl, 3 Month, 127 mmol/kg peptide in Glycerin water): 99.8% | normalized peptide content (3 eq. LiCl, 4 Month, 127 mmol/kg peptide in Glycerin water): 96.4% | normalized peptide content (3 eq. LiCl, 5 Month, 127 mmol/kg peptide in Glycerin water): 90.7% | normalized peptide content (3 eq. LiCl, 6 Month, 127 mmol/kg peptide in Glycerin water): 87.6% | normalized peptide content (3 eq. MgCl2 (382 mmol/kg), t0, 127 mmol/kg peptide in Glycerin water): 100.0% | normalized peptide content (3 eq. MgCl2, 1 Month, 127 mmol/kg peptide in Glycerin water): 93.7% | normalized peptide content (3 eq. MgCl2, 2 Month, 127 mmol/kg peptide in Glycerin water): 96.5% | normalized peptide content (3 eq. MgCl2, 3 Month, 127 mmol/kg peptide in Glycerin water): 100.0% | normalized peptide content (3 eq. MgCl2, 4 Month, 127 mmol/kg peptide in Glycerin water): 94.9% | normalized peptide content (3 eq. MgCl2, 5 Month, 127 mmol/kg peptide in Glycerin water): 89.7% | normalized peptide content (3 eq. MgCl2, 6 Month, 127 mmol/kg peptide in Glycerin water): 90.7% | normalized peptide content (3 eq. ZnCl2 (382 mmol/kg), t0, 127 mmol/kg peptide in Glycerin water): 100.0% | normalized peptide content (3 eq. ZnCl2, 1 Month, 127 mmol/kg peptide in Glycerin water): 88.5% | normalized peptide content (3 eq. ZnCl2, 2 Month, 127 mmol/kg peptide in Glycerin water): 93.5% | normalized peptide content (3 eq. ZnCl2, 3 Month, 127 mmol/kg peptide in Glycerin water): 98.7% | normalized peptide content (3 eq. ZnCl2, 4 Month, 127 mmol/kg peptide in Glycerin water): 96.5% | normalized peptide content (3 eq. ZnCl2, 5 Month, 127 mmol/kg peptide in Glycerin water): 88.1% | normalized peptide content (3 eq. ZnCl2, 6 Month, 127 mmol/kg peptide in Glycerin water): 92.3% | normalized peptide content (No salt, 1 Month, 127 mmol/kg peptide in Glycerin water): 106.2% | normalized peptide content (No salt, 2 Month, 127 mmol/kg peptide in Glycerin water): 91.7% | normalized peptide content (No salt, 3 Month, 127 mmol/kg peptide in Glycerin water): 18.9% | normalized peptide content (No salt, 4 Month, 127 mmol/kg peptide in Glycerin water): 11.5% | normalized peptide content (No salt, 5 Month, 127 mmol/kg peptide in Glycerin water): 10.1% | normalized peptide content (No salt, t0, 127 mmol/kg peptide in Glycerin water (~2.3:1)): 100.0%
Substance: H29C14—NH—CO-Dab-Val-Dab-OH

Substance: Palm-Lys-Val-Dab-OH (Palmitoyl-Lys-Val-[Dab]-OH; SMILES CCCCCCCCCCCCCCCC(=O)N[C@@H](CCCCN)C(=O)N[C@H](C(=O)N[C@@H](CCN)C(=O)O)C(C)C) [peptide substituted with a lipophilic moiety; Palm means palmitoyl and Dab means 2,4-diaminobutyroyl]
normalized peptide content (1 eq MgCl2, 1 Month, 246 mmol/kg peptide in Glycerin water): 71.7% | normalized peptide content (1 eq MgCl2, t0, 246 mmol/kg peptide in Glycerin water): 100.0% | normalized peptide content (3 eq LiCl, 1 Month, 246 mmol/kg peptide in Glycerin water): 75.9% | normalized peptide content (3 eq LiCl, t0, 246 mmol/kg peptide in Glycerin water): 100.0% | normalized peptide content (3 eq MgCl2, 1 Month, 246 mmol/kg peptide in Glycerin water): 70.5% | normalized peptide content (3 eq MgCl2, t0, 246 mmol/kg peptide in Glycerin water): 100.0% | normalized peptide content (3 eq NaCl, 1 Month, 246 mmol/kg peptide in Glycerin water): 75.7% | normalized peptide content (3 eq NaCl, t0, 246 mmol/kg peptide in Glycerin water): 100.0% | normalized peptide content (No salt, 1 Month, 246 mmol/kg peptide in Glycerin water): 44.2% | normalized peptide content (No salt, t0, 246 mmol/kg peptide in Glycerin water (~2.3:1)): 100.0%

Substance: Palm-Lys-Val-Lys-OH (Palmitoyl-Lys-Val-Lys-OH; SMILES CCCCCCCCCCCCCCCC(=O)N[C@@H](CCCCN)C(=O)N[C@H](C(=O)N[C@@H](CCCCN)C(=O)O)C(C)C) [peptide substituted with a lipophilic moiety; Palm means palmitoyl]
normalized peptide content (1 eq MgCl2, 1 Month, 119 mmol/kg peptide in Glycerin water): 81.4% | normalized peptide content (1 eq MgCl2, t0, 119 mmol/kg peptide in Glycerin water): 100.0% | normalized peptide content (3 eq LiCl, 1 Month, 119 mmol/kg peptide in Glycerin water): 83.6% | normalized peptide content (3 eq LiCl, t0, 119 mmol/kg peptide in Glycerin water): 100.0% | normalized peptide content (3 eq MgCl2, 1 Month, 119 mmol/kg peptide in Glycerin water): 87.4% | normalized peptide content (3 eq MgCl2, t0, 119 mmol/kg peptide in Glycerin water): 100.0% | normalized peptide content (3 eq NaCl, 1 Month, 119 mmol/kg peptide in Glycerin water): 82.0% | normalized peptide content (3 eq NaCl, t0, 119 mmol/kg peptide in Glycerin water): 100.0% | normalized peptide content (No salt, 1 Month, 119 mmol/kg peptide in Glycerin water): 76.4% | normalized peptide content (No salt, t0, 119 mmol/kg peptide in Glycerin water (~2.3:1)): 100.0%
